Test results: US10160743B2, “Sulphamoylthiophenamide derivatives and the use thereof as medicaments for the treatment of hepatitis B” (Janssen Sciences Ireland UC, priority 2013, dated 2018)

Tests used:
HBV [1] = test: Anti-HBV activity, HepG2.2.15 cell line, HBV DNA from secreted virions by realtime PCR; assay type: cell-based, Hepatitis B virus; details: Hepatitis B virus, HepG2.2.15, 144 h, HepG2.2.15 cells, 6 days of treatment
[2] = Cytotoxicity in HepG2 cells, Resazurin assay; assay type: cell-based; details: human, incubated for 4 days, Resazurin viability
HBV [3] = test: Anti-HBV activity, HepG2.117 cell line (Tet-off), intracellular HBV DNA by realtime PCR; assay type: cell-based, Hepatitis B virus; details: Hepatitis B virus, HepG2.117, 72 h, HepG2.117 cells, 3 days of treatment

Row | SMILES | EC50 (HBV [1]) [nM] | CC50 at 4 days [2] [µM] | EC50 (HBV [3]) [nM]
1 | Cc1sc(S(=O)(=O)NC(C)(C)C(N)=O)cc1C(=O)Nc1ccc(F)c(F)c1 [Compound 32, 5-[(2-Amino-1,1-dimethyl-2-oxoethyl)sulfamoyl]-N-(3,4-difluorophenyl)-2-methylthiophene-3-carboxamide] | 220 | > 25 | 300
2 | Cc1sc(S(=O)(=O)N[C@@H](C)C(F)(F)F)cc1C(=O)Nc1ccc(F)c(C#N)c1 [Compound 46, N-(3-cyano-4-fluoro-phenyl)-2-methyl-5-[[(1S)-2,2,2-trifluoro-1-methyl-ethyl]sulfamoyl]thiophene-3-carboxamide] | 400 | > 25 | 420
3 | Cc1sc(S(=O)(=O)NC(CF)CF)cc1C(=O)Nc1ccc(F)c(C#N)c1 [Compound 43, N-(3-cyano-4-fluoro-phenyl)-5-[[2-fluoro-1-(fluoromethyl)ethyl]sulfamoyl]-2-methyl-thiophene-3-carboxamide] | 330 | > 25 | 670
4 | Cc1cc(NC(=O)c2cc(S(=O)(=O)NC(C)(C)C)sc2C)ccc1F [Compound 25, 5-(tert-Butylsulfamoyl)-N-(4-fluoro-3-methylphenyl)-2-methylthiophene-3-carboxamide] | 53 | > 25 | 58
5 | COC(=O)C(C)(C)NS(=O)(=O)c1cc(C(=O)Nc2ccc(F)c(C)c2)c(C)s1 [Compound 31, Methyl N-({4-[(4-fluoro-3-methylphenyl)carbamoyl]-5-methylthiophen-2-yl}sulfonyl)-2-methylalaninate] | 520 | > 25 | 170
6 | Cc1cc(NC(=O)c2scc(S(=O)(=O)N[C@H]3CCOC3)c2C)ccc1F [Compound 11, N-(4-fluoro-3-methyl-phenyl)-3-methyl-4-[[(3S)-tetrahydrofuran-3-yl]-sulfamoyl]thiophene-2-carboxamide] | 190 | > 25 | 310
7 | Cc1sc(S(=O)(=O)N[C@H](C)C(F)(F)F)cc1C(=O)Nc1cc(F)c(F)c(Cl)c1 [Compound 36, N-(3-Chloro-4,5-difluorophenyl)-2-methyl-5-{[(1R)-2,2,2-trifluoro-1-methylethyl]sulfamoyl}thiophene-3-carboxamide] | 140 | 7.1 | 160
8 | CCc1sc(S(=O)(=O)N[C@H]2CCOC2)cc1C(=O)Nc1ccc(F)c(C)c1 [Compound 14, 2-ethyl-N-(4-fluoro-3-methyl-phenyl)-5-[[(3S)-tetrahydrofuran-3-yl]-sulfamoyl]thiophene-3-carboxamide] | 630 | > 25 | 130
9 | CC[C@@H](C)NS(=O)(=O)c1cc(C(=O)Nc2ccc(F)c(F)c2)c(C)s1 [Compound 18, N-(3,4-difluorophenyl)-2-methyl-5-[[(1R)-1-methylpropyl]sulfamoyl]thiophene-3-carboxamide] | 65 | 14.6 | 82
10 | Cc1cc(NC(=O)c2cc(S(=O)(=O)N[C@H]3CCOC3)sc2C2CC2)ccc1F [Compound 6, 2-cyclopropyl-N-(4-fluoro-3-methyl-phenyl)-5-[[(3S)-tetrahydrofuran-3-yl]sulfamoyl]thiophene-3-carboxamide] | 580 | > 25 | 680
11 | Cc1cc(NC(=O)c2cc(S(=O)(=O)N[C@H](C)CO)sc2Cl)ccc1F [Compound 3, 2-chloro-N-(4-fluoro-3-methyl-phenyl)-5-[[(1R)-2-hydroxy-1-methyl-ethyl]sulfamoyl]thiophene-3-carboxamide] | 210 | > 25 | 340
12 | Cc1sc(S(=O)(=O)NC2(C)COC2)cc1C(=O)Nc1ccc(F)c(Br)c1 [Compound 29, N-(3-Bromo-4-fluorophenyl)-2-methyl-5-[(3-methyloxetan-3-yl)-sulfamoyl]thiophene-3-carboxamide] | 120 | 13.2 | 120
13 | Cc1sc(S(=O)(=O)NC(C)(C)C)cc1C(=O)Nc1ccc(F)c(F)c1 [Compound 17, 5-(tert-butylsulfamoyl)-N-(3,4-difluorophenyl)-2-methyl-thiophene-3-carboxamide] | 120 | 11.7 | 130
14 | Cc1cc(NC(=O)c2scc(S(=O)(=O)NC3(C)COC3)c2C)ccc1F [Compound 12, N-(4-fluoro-3-methyl-phenyl)-3-methyl-4-[(3-methyloxetan-3-yl)-sulfamoyl]thiophene-2-carboxamide] | 160 | > 25 | 190
15 | Cc1cc(NC(=O)c2cc(S(=O)(=O)NC(C)(C)C)sc2C)cc(F)c1F [Compound 23, 5-(tert-Butylsulfamoyl)-N-(3,4-difluoro-5-methylphenyl)-2-methylthiophene-3-carboxamide] | 110 | 18.1 | 32
16 | Cc1sc(S(=O)(=O)NC(C)(C)C)cc1C(=O)Nc1cccc(C(F)(F)F)c1 [Compound 21, 5-(tert-butylsulfamoyl)-2-methyl-N-[3-(trifluoromethyl)phenyl]thiophene-3-carboxamide] | 320 | 10.5 | > 1000
17 | Cc1sc(S(=O)(=O)NC2(C)COC2)cc1C(=O)Nc1cc(F)c(F)c(Cl)c1 [Compound 19, N-(3-chloro-4,5-difluoro-phenyl)-2-methyl-5-[(3-methyloxetan-3-yl)-sulfamoyl]thiophene-3-carboxamide] | 63 | > 25 | 100
18 | COC(=O)C(C)(C)NS(=O)(=O)c1cc(C(=O)Nc2ccc(F)c(F)c2)c(C)s1 [Compound 30, Methyl N-({4-[(3,4-difluorophenyl)carbamoyl]-5-methylthiophen-2-yl}sulfonyl)-2-methylalaninate] | > 1000 | > 25 | 790
19 | Cc1sc(S(=O)(=O)N[C@@H](C)C(F)(F)F)cc1C(=O)Nc1cc(F)c(F)c(Cl)c1 [Compound 37, N-(3-Chloro-4,5-difluorophenyl)-2-methyl-5-{[(1S)-2,2,2-trifluoro-1-methylethyl]sulfamoyl}thiophene-3-carboxamide] | 160 | 8.2 | 220
20 | Cc1cc(NC(=O)c2cc(S(=O)(=O)N[C@H]3CCOC3)cs2)ccc1F [Compound 8, N-(4-fluoro-3-methyl-phenyl)-4-[[(3S)-tetrahydrofuran-3-yl]sulfamoyl]thiophene-2-carboxamide] | 100 | > 25 | 160
21 | Cc1sc(S(=O)(=O)NC(CF)CF)cc1C(=O)Nc1ccc(F)c(F)c1 [Compound 52, N-(3,4-difluorophenyl)-5-[[2-fluoro-1-(fluoromethyl)ethyl]sulfamoyl]-2-meth thiophene-3-carboxamide] | 170 | > 25 | 170
22 | Cc1cc(NC(=O)c2cc(S(=O)(=O)NC3(C)COC3)sc2C)cc(C#N)c1F [Compound 44, N-(3-cyano-4-fluoro-5-methyl-phenyl)-2-methyl-5-[(3-methyloxetan-3-yl)sulfamoyl]thiophene-3-carboxamide] | 820 | > 25 | 450
23 | Cc1cc(NC(=O)c2cc(S(=O)(=O)NC3(C(F)(F)F)CC3)sc2C)ccc1F [Compound 35, N-(4-Fluoro-3-methylphenyl)-2-methyl-5-{[1-(trifluoromethyl)cyclo-propyl]sulfamoyl}thiophene-3-carboxamide] | 60 | > 25 | 40
24 | Cc1sc(S(=O)(=O)NC2(C(F)(F)F)CC2)cc1C(=O)Nc1ccc(F)c(C#N)c1 [Compound 53, N-(3-cyano-4-fluoro-phenyl)-2-methyl-5-[[1-(trifluoromethyl)cyclo-propyl]sulfamoyl]thiophene-3-carboxamide] | 120 | 13.7 | 140
25 | Cc1sc(S(=O)(=O)N[C@H](C)C(F)(F)F)cc1C(=O)Nc1ccc(F)c(C#N)c1 [Compound 51, N-(3-cyano-4-fluoro-phenyl)-2-methyl-5-[[(1R)-2,2,2-trifluoro-1-methyl-ethyl]sulfamoyl]thiophene-3-carboxamide] | 250 | > 25 | 170
26 | Cc1sc(S(=O)(=O)N[C@@H](C)C(C)(F)F)cc1C(=O)Nc1ccc(F)c(F)c1 [Compound 47, 5-[[(1S)-2,2-difluoro-1-methyl-propyl]sulfamoyl]-N-(3,4-difluorophenyl)-2-methyl-thiophene-3-carboxamide] | 160 | 14.3 | 340
27 | Cc1sc(S(=O)(=O)NC(C)(C)C)cc1C(=O)Nc1cc(F)c(F)c(Cl)c1 [Compound 20, 5-(tert-Butylsulfamoyl)-N-(3-chloro-4,5-difluorophenyl)-2-methylthiophene-3-carboxamide] | 170 | 15.9 | 110
28 | Cc1cc(NC(=O)c2cc(S(=O)(=O)NC3(C)COC3)c(C)s2)ccc1F [Compound 10, N-(4-fluoro-3-methyl-phenyl)-5-methyl-4-[(3-methyloxetan-3-yl)-sulfamoyl]thiophene-2-carboxamide] | 430 | > 25 | 560
29 | Cc1cc(NC(=O)c2cc(S(=O)(=O)NC3(C)COC3)sc2C)ccc1F [Compound 15, N-(4-fluoro-3-methyl-phenyl)-2-methyl-5-[(3-methyloxetan-3-yl)-sulfamoyl]thiophene-3-carboxamide] | 27 | > 25 | 160
30 | Cc1sc(S(=O)(=O)NC(C)(C)C(F)(F)F)cc1C(=O)Nc1cc(F)c(F)c(Cl)c1 [Compound 40, N-(3-chloro-4,5-difluoro-phenyl)-2-methyl-5-[(2,2,2-trifluoro-1,1-dimethyl-ethyl)sulfamoyl]thiophene-3-carboxamide] | – | > 25 | 500
